Data published in patent US20120225862A1, “HETEROARYL BENZAMIDES, COMPOSITIONS AND METHODS OF USE” (AUCKLAND UNIVSERVICES LIMITED, priority 2009, published 2012).

Tested on: RCC4
Experiment: Necrotic cell death by trypan blue, RCC4
Format: cell-based, human
Conditions: 3 days, 5 μM, FIG. 2F
Method: For 2,3-bis[2-methoxy-4-nitro-5-sulfophenyl]-2H-tetrazolium-5-carboxanilide (XTT) assays, five thousand cells were plated in 96-well plates. The next day, vehicle (DMSO) or drug was added by serial dilution. Four days later, media were aspirated, XTT solution (0.3 mg/ml of XTT (Sigma), 2.65 mg/ml N-methyl dibenxopyrazine methyl sulfate (Simga) in phenol red-free media) was added, and the plates were incubated at 37° C. for 1-2 hours. Metabolism of XTT was quantified by measuring the absorbance at 450 nm. IC50s were calculated using linear interpolation. For clonogenic survival assays, three hundred cells were plated per 60 mm tissue culture dish. The cells were allowed to attach overnight and then treated with vehicle or drug for 14 days. Colonies were fixed and stained with crystal violet (0.1% crystal violet in 95% ethanol). All conditions were measured in triplicate and each experiment was done in duplicate or triplicate. To determine necrosis, cells were treated with drug for a given time point. Media and cells were collected, centrifugated, and resuspended in 0.4% trypan blue (Invitrogen). Live and dead cells were counted on a hematocytometer.

CC(C)(C)c1ccc(S(=O)(=O)NCc2ccc(C(=O)Nc3cccnc3)cc2)cc1 [Example 38, 4-((4-tert-Butylphenylsulfonamido)methyl)-N-(pyridin-3-yl)benzamide]
RCC4 cells exhibiting necrotic cell death: greater than 80%
